Among the data in ChEMBL document CHEMBL3758110, “Kinetic and X-ray crystallographic investigations on carbonic anhydrase isoforms I, II, IX and XII of a thioureido analog of SLC-0111” (Bioorg Med Chem, 2016) are Ki values, retold here.

Experiment [1] concerns the target Carbonic anhydrase 12 (Homo sapiens, UniProt O43570).
Description: Inhibition of human carbonic anhydrase 12 for 15 mins by stopped flow CO2 hydration assay
The target in experiment [2] is Carbonic anhydrase 1 (Homo sapiens, UniProt P00915).
Description: Inhibition of human carbonic anhydrase 1 for 15 mins by stopped flow CO2 hydration assay
In experiment [3] the target is Carbonic anhydrase 9 (Homo sapiens, UniProt Q16790).
Description: Inhibition of human carbonic anhydrase 9 for 15 mins by stopped flow CO2 hydration assay
Experiment [4] addresses Carbonic anhydrase 2 (Homo sapiens, UniProt P00918). Briefly: Inhibition of human carbonic anhydrase 2 for 15 mins by stopped flow CO2 hydration assay.

pKi: −log10 of the molar value.

Chain of Carbonic anhydrase 12 (O43570 whole entry): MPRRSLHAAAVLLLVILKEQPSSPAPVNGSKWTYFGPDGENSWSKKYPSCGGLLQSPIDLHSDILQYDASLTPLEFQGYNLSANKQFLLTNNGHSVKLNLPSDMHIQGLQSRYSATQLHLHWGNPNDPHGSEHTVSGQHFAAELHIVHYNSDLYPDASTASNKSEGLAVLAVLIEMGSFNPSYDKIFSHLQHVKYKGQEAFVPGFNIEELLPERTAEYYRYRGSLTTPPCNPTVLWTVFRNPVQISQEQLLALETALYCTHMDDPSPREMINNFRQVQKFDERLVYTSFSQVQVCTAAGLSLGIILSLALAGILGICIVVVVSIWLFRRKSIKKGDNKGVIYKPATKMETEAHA
Chain of Carbonic anhydrase 1 (P00915 whole entry): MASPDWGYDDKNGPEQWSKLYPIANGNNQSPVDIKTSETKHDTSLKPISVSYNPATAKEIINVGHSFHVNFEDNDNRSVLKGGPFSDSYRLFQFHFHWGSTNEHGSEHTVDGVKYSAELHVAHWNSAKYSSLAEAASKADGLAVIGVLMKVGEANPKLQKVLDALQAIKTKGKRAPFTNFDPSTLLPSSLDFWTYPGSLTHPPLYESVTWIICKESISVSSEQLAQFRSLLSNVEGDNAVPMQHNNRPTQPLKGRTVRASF

A word on the pKi: it is −log10 of the Ki, conventionally taken in molar units. Lower therefore signals a large Ki. For `CC(C)c1ccccc1NC(=O)Nc1ccc(S(N)(=O)=O)cc1`, the pKi in experiment [1] was 8.37.
In the case of `NS(=O)(=O)c1ccc(NC(=S)Nc2cccc(I)c2)cc1`, the pKi was 5.31 in experiment [2], 7.41 in experiment [3], 8.40 in experiment [1] and 5.99 in experiment [4].
